Data from patent US6673902B2, “Cyclin D binding factor, and uses thereof” (St. Jude Children's Research Hospital, priority 1996, dated 2004).

How the values were obtained:
[1] = system: ARF-null MEFs; test: BrdU incorporation / cell cycle arrest in ARF-null MEFs; format: cell-based, mouse; details: retroviral infection
Procedure: BrdU incorporation and immunofluorescence. Wild-type or ARF-null MEFs (4×10^4 cells) were seeded on gelatin-coated coverslips 16 hours before virus infection. Cells were infected three times with empty vector, or vectors expressing murine DMP1, human c-Myc, human E2F-1, or human Ets1. Cells were labeled 36 hours after virus infection with bromodeoxyuridine (BrdU, Sigma) for 14 hours in complete medium. For pulse labeling, MEFs were treated with 2 μM4-HT for 36 hours and labeled with BrdU for three hours at different intervals throughout the inductive phase. Cells were fixed in ice-cold methanol-acetone (1:1) for 10 min at −20° C. and then were stained with affinity-purified antibodies to DMP1 (AF) [Hirai and Sherr, Mol. Cell. […]
Based on the above observations, it was determined as to whether introduction of DMP1 would induce synthesis of the endogenous ARF protein in normal diploid fibroblast strains. […] Although the blot was normalized for protein input, the levels of p19^ARF induced by DMP1 were calculated to be 2-fold higher than those induced by Myc, because fewer cells were productively infected with the DMP1 virus in this experiment (see FIG. 15A).

[2] = system: D-type cyclins; test: Co-expression with D-type cyclins in Sf9 cells and co-precipitation; format: binding, mouse
Procedure: BamHI linkers are added to an XbaI-EcoRV cDNA fragment containing the entire DMP1 coding sequence, and the fragment is inserted into the BamHI site of the pAcYM1 baculovirus vector (37). Production of virus and infection of Spodoptera frugiperda (Sf9) cells are performed as previously described (23). For preparation of radiolabeled cell lysates, cells infected with the indicated recombinant viruses encoding DMP1, CDKs, and/or cyclins are metabolically labeled 40 hours post-infection for 8 additional hours with 50 uCi/ml of [^35S]methionine (1000 Ci/mmol; ICN, Irvine Calif.) in methionine-free medium or for 4 additional hours with 250 uCi/ml of carrier-free ^32P-orthophosphate (9000 Ci/mmol, Amersham) in phosphate-free medium. Cells suspended in 0.25 ml Kinase buffer containing protease and phosphatase inhibitors [2.5 mM EGTA, 0.1 mM phenylmethyl sulfonylfluoride (PMSF), 2% aprotinin, 1 mM β-glycerophosphate, 0.1 mM Na3VO4, and 0.1 mM NaF] are lysed by repeated freezing and thawing and clarified by centrifuigation. […]
We next co-expressed full length DMP1 together with D-type cyclins under baculovirus vector control in insect Sf9 cells. […] Electrophoretic separation of unfractionated metabolically labeled lysates from infected cells enabled direct autoradiographic visualization and relative quantitation of the recombinant mouse proteins (FIG. 3A). […]

## DMP1: murine cyclin D-associated myb-like transcription factor, 761 amino acids, SEQ ID NO:1
[1]
  cell cycle arrest: refractory
[2]; coexpressed in Sf9 cells
  DMP1 molecules forming stable complexes with D-type cyclins: ≤ 15%
[2]; coinfected Sf9 cells, approximately equivalent levels of protein and cyclin D2 or cyclin D3
  cyclin stably bound: 5-15%
